The text below walks through data of paper PMC8871760, “Assessment of Five Pesticides as Endocrine-Disrupting Chemicals: Effects on Estrogen Receptors and Aromatase” (International Journal of Environmental Research and Public …, 2022).

Molecules are shown by their SMILES.

In this test the target is T1, recombinant form of human aromatase (Homo sapiens, UniProt P11511).
T1 construct: gene CYP19A1; purified recombinant; assayed with equimolar human CPR; with NADPH--cytochrome P450 reductase
T1 sequence (P11511 1-503): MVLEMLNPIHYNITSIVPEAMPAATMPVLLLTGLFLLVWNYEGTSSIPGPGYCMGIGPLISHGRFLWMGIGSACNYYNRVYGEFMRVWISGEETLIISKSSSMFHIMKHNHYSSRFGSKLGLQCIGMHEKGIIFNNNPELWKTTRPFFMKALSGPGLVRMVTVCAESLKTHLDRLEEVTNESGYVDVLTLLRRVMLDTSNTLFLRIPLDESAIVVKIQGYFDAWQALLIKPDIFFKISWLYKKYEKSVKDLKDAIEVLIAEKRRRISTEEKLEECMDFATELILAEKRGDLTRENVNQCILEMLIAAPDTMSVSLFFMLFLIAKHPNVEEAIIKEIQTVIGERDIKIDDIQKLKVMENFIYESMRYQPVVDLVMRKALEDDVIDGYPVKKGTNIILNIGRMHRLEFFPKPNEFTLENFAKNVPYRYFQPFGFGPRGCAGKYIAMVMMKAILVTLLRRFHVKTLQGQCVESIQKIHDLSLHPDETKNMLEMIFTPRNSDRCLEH
T1 sequence (P16435 2-677 partner): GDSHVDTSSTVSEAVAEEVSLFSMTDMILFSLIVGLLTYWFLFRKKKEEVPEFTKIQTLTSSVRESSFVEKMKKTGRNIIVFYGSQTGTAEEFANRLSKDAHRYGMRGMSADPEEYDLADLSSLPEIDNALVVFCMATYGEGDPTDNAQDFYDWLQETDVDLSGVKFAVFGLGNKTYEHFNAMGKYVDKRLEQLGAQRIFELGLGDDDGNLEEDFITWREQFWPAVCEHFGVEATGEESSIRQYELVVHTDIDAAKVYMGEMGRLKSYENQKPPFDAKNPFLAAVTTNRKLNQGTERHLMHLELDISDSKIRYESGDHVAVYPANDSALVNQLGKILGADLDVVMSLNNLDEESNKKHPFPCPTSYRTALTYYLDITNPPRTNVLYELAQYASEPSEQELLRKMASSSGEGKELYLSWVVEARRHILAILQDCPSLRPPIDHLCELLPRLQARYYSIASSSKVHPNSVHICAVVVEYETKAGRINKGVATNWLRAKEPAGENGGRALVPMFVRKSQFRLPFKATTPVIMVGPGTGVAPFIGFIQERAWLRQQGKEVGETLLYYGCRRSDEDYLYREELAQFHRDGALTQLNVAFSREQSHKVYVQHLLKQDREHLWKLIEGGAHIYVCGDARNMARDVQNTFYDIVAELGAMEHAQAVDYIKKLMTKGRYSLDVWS
Nature of the test: estrone ELISA of aromatase reaction. The test is classed as biochemical. The note with it: read-out: Relative Activity (% of C+) / 5 × 10^-6 M. From the text:
estrone ELISA of aromatase reaction on recombinant form of human aromatase
A general note: ELISA stands for enzyme-linked immunosorbent assay.
On to `CN1COCN(Cc2cnc(Cl)s2)C1=N[N+](=O)[O-]` [Thiamethoxam], for which the activity at 5 µM is 95.6 ± 17.1%.

For the molecule `CNC(=O)Oc1cc(C)c(SC)c(C)c1` [Methiocarb], the activity at 5 µM turned out to be 90.9 ± 5.4%.

Turning to `CN/C(=N\[N+](=O)[O-])NCc1cnc(Cl)s1` [Clothianidin], the activity at 5 µM is 97.9 ± 5.2%. For the molecule `CC(C)Oc1cc(-n2nc(C(C)(C)C)oc2=O)c(Cl)cc1Cl` [Oxadiazon], the activity at 5 µM came out at 101 ± 16.7%. Next, `C/C(=N\C#N)N(C)Cc1ccc(Cl)nc1` [Acetamiprid]: 87.5 ± 17.6%.
